Measurements: publication PMC8333425, “Discovery of a dual Ras and ARF6 inhibitor from a GPCR endocytosis screen” (Nature Communications, 2021)

What was measured:
Assay in all cases: KINOMEscan kinase binding assay
[1] = molecular target: T1, 384 kinases from the human genome (Homo sapiens, UniProt O43353); conditions: kinase RIPK2 (Entrez RIPK2)
T1 construct: purchased Eurofin/DiscoverX
Text: (§1) We reasoned that because internalizing AT1R and its targeting to intracellular compartments can support continued MAPK signaling, and since 21 inhibits receptor internalization, it should also impede to some extent ERK1/2 activation. […] Receptor-mediated ERK1/2 signaling can involve upstream kinases such as PKC, BRAF, and MEK1[35],[36]. […] To exclude other kinases potentially involved in ERK1/2 and Akt activation as targets of 21, we ran a kinase binding assay (KINOMEscan™) on 384 kinases from the human genome. Remarkably, a very high selectivity score S(10) of 0.008 was found (Supplementary Data 3).
(§2) The chemical library used for initial screening was from Chembridge DiverSet™ (60,000 compounds), Maybridge HitFinder™ (16,000 compounds), Maybridge (selected, 16,000 compounds), SPECS (selected, 16000 compounds), Microsource Discovery Spectrum (2000 compounds), Biomol (natural products, 500 compounds), Prestwick (commercialized products, 1120 compounds), SIGMA LopacTM (1280 compounds) and internal collection (synthesized at Université de Montréal-IRIC, ~4000 compounds). Compounds were all assigned an Université de Montréal number (UM) for internal use. Screen was performed at IRIC HTS facility. KINOMEscan™ profiling was serviced by Eurofin/DiscoverX (San Diego, USA).
(§3) Description of Additional Supplementary Files […]
(§4) File Name: Supplementary Data 3
(§5) Description: KINOMEscan results. Compound 21’s effect was tested on 384 kinases. Data represent kinases binding to their ligands in presence of 10 µM of 21, as compared to DMSO (100%). Results are from one experiment and represent the average of duplicates. Three kinases (FLT3, KIT, and PDGFRB) out of 384 were more than 90% affected (selectivity score S(10) of 0.008). […]

[2] = molecular target: T2, 384 kinases from the human genome (Homo sapiens, UniProt O96017); conditions: kinase CHEK2 (Entrez CHEK2)
T2 construct: purchased Eurofin/DiscoverX
Text: as §1, §2, §3, §4, §5

[3] = molecular target: T3, 384 kinases from the human genome (Homo sapiens, UniProt P21709); conditions: kinase EPHA1 (Entrez EPHA1)
T3 construct: purchased Eurofin/DiscoverX
Text: as §1, §2, §3, §4, §5

[4] = molecular target: T4, 384 kinases from the human genome (Homo sapiens, UniProt P31751); conditions: kinase AKT2 (Entrez AKT2)
T4 construct: purchased Eurofin/DiscoverX
Text: as §1, §2, §3, §4, §5

[5] = molecular target: T5, 384 kinases from the human genome (Homo sapiens, UniProt P35590); conditions: kinase TIE1 (Entrez TIE1)
T5 construct: purchased Eurofin/DiscoverX
Text: as §1, §2, §3, §4, §5

[6] = molecular target: T6, 384 kinases from the human genome (Homo sapiens, UniProt P37023); conditions: kinase ACVRL1 (Entrez ACVRL1)
T6 construct: purchased Eurofin/DiscoverX
Text: as §1, §2, §3, §4, §5

[7] = molecular target: T7, 384 kinases from the human genome (Homo sapiens, UniProt P41743); conditions: kinase PRKCI (Entrez PRKCI)
T7 construct: purchased Eurofin/DiscoverX
Text: as §1, §2, §3, §4, §5

[8] = molecular target: T8, 384 kinases from the human genome (Homo sapiens, UniProt P49674); conditions: kinase CSNK1E (Entrez CSNK1E)
T8 construct: purchased Eurofin/DiscoverX
Text: as §1, §2, §3, §4, §5

[9] = molecular target: T9, 384 kinases from the human genome (Homo sapiens, UniProt P49760); conditions: kinase CLK2 (Entrez CLK2)
T9 construct: purchased Eurofin/DiscoverX
Text: as §1, §2, §3, §4, §5

[10] = molecular target: T10, 384 kinases from the human genome (Homo sapiens, UniProt P50613); conditions: kinase CDK7 (Entrez CDK7)
T10 construct: purchased Eurofin/DiscoverX
T10 sequence (P50613 whole entry): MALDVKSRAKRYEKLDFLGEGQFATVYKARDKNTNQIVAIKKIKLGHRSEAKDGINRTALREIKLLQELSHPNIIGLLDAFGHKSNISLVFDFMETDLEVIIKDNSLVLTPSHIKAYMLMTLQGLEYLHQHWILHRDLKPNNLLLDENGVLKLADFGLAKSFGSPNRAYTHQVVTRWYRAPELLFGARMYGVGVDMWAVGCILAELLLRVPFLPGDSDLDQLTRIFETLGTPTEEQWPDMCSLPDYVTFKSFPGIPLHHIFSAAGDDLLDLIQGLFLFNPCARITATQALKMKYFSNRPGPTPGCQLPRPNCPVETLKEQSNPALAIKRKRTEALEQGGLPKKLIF
Text: as §1, §2, §3, §4, §5

[11] = molecular target: T11, 384 kinases from the human genome (Homo sapiens, UniProt P54646); conditions: kinase AMPK-alpha2 (Entrez PRKAA2)
T11 construct: purchased Eurofin/DiscoverX
Text: as §1, §2, §3, §4, §5

[12] = molecular target: T12, 384 kinases from the human genome (Homo sapiens, UniProt P54760); conditions: kinase EPHB4 (Entrez EPHB4)
T12 construct: purchased Eurofin/DiscoverX
Text: as §1, §2, §3, §4, §5

[13] = molecular target: T13, 384 kinases from the human genome (Homo sapiens, UniProt P78368); conditions: kinase CSNK1G2 (Entrez CSNK1G2)
T13 construct: purchased Eurofin/DiscoverX
Text: as §1, §2, §3, §4, §5

[14] = molecular target: T14, 384 kinases from the human genome (Homo sapiens, UniProt P80192); conditions: kinase MLK1 (Entrez MAP3K9)
T14 construct: purchased Eurofin/DiscoverX
T14 sequence (P80192 whole entry): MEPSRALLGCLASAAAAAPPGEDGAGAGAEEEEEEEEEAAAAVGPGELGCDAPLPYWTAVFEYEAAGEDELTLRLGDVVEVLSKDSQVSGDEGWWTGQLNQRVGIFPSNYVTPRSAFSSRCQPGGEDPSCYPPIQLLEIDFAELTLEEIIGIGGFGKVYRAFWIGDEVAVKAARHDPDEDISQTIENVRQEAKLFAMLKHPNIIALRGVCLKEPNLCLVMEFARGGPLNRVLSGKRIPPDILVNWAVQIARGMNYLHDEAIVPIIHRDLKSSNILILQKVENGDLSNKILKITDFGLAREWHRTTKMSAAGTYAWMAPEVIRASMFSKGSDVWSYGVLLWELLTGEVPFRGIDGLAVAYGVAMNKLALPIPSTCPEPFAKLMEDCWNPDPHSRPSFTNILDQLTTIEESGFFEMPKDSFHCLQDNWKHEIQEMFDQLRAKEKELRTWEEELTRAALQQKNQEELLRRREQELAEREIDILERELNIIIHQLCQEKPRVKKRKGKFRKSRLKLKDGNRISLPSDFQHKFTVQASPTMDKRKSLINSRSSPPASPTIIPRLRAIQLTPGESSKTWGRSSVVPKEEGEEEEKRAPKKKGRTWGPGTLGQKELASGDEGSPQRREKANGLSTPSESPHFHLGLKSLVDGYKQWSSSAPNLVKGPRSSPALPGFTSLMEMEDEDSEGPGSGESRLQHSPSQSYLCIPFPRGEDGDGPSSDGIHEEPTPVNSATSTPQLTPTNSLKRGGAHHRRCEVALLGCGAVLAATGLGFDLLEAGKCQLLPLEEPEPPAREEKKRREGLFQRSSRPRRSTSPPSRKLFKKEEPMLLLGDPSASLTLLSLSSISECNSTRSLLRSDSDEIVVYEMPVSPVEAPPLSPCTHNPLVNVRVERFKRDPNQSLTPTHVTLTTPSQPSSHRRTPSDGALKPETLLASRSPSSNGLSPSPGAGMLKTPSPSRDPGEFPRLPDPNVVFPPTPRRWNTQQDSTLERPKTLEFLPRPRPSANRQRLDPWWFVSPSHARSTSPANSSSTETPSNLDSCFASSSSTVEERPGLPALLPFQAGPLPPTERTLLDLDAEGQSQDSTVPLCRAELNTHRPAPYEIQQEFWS
Text: as §1, §2, §3, §4, §5

[15] = molecular target: T15, 384 kinases from the human genome (Homo sapiens, UniProt Q00532); conditions: kinase CDKL1 (Entrez CDKL1)
T15 construct: purchased Eurofin/DiscoverX
Text: as §1, §2, §3, §4, §5

[16] = molecular target: T16, 384 kinases from the human genome (Homo sapiens, UniProt Q06418); conditions: kinase TYRO3 (Entrez TYRO3)
T16 construct: purchased Eurofin/DiscoverX
Text: as §1, §2, §3, §4, §5

[17] = molecular target: T17, 384 kinases from the human genome (Homo sapiens, UniProt Q08881); conditions: kinase ITK (Entrez ITK)
T17 construct: purchased Eurofin/DiscoverX
Text: as §1, §2, §3, §4, §5

[18] = molecular target: T18, 384 kinases from the human genome (Homo sapiens, UniProt Q13188); conditions: kinase MST2 (Entrez STK3)
T18 construct: purchased Eurofin/DiscoverX
T18 sequence (Q13188 whole entry): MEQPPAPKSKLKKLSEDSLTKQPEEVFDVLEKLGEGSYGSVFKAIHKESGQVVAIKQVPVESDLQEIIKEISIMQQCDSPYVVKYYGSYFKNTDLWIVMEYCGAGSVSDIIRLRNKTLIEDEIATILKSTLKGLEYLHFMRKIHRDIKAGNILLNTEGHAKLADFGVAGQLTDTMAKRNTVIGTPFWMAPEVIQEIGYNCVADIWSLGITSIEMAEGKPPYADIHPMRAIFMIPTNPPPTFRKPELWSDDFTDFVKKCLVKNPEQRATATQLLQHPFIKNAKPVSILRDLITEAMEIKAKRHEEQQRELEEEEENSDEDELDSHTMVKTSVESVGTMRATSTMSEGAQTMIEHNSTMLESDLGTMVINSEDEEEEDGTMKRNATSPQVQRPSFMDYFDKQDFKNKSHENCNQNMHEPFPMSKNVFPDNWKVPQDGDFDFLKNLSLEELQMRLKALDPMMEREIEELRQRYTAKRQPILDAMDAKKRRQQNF
Text: as §1, §2, §3, §4, §5

[19] = molecular target: T19, 384 kinases from the human genome (Homo sapiens, UniProt Q13555); conditions: kinase CAMK2G (Entrez CAMK2G)
T19 construct: purchased Eurofin/DiscoverX
Text: as §1, §2, §3, §4, §5

[20] = molecular target: T20, 384 kinases from the human genome (Homo sapiens, UniProt Q13873); conditions: kinase BMPR2 (Entrez BMPR2)
T20 construct: purchased Eurofin/DiscoverX
Text: as §1, §2, §3, §4, §5

[21] = molecular target: T21, 384 kinases from the human genome (Homo sapiens, UniProt Q15139); conditions: kinase PRKD1 (Entrez PRKD1)
T21 construct: purchased Eurofin/DiscoverX
Text: as §1, §2, §3, §4, §5

[22] = molecular target: T22, 384 kinases from the human genome (Homo sapiens, UniProt Q8N4C8); conditions: kinase MINK (Entrez MINK1)
T22 construct: purchased Eurofin/DiscoverX
T22 sequence (Q8N4C8 whole entry): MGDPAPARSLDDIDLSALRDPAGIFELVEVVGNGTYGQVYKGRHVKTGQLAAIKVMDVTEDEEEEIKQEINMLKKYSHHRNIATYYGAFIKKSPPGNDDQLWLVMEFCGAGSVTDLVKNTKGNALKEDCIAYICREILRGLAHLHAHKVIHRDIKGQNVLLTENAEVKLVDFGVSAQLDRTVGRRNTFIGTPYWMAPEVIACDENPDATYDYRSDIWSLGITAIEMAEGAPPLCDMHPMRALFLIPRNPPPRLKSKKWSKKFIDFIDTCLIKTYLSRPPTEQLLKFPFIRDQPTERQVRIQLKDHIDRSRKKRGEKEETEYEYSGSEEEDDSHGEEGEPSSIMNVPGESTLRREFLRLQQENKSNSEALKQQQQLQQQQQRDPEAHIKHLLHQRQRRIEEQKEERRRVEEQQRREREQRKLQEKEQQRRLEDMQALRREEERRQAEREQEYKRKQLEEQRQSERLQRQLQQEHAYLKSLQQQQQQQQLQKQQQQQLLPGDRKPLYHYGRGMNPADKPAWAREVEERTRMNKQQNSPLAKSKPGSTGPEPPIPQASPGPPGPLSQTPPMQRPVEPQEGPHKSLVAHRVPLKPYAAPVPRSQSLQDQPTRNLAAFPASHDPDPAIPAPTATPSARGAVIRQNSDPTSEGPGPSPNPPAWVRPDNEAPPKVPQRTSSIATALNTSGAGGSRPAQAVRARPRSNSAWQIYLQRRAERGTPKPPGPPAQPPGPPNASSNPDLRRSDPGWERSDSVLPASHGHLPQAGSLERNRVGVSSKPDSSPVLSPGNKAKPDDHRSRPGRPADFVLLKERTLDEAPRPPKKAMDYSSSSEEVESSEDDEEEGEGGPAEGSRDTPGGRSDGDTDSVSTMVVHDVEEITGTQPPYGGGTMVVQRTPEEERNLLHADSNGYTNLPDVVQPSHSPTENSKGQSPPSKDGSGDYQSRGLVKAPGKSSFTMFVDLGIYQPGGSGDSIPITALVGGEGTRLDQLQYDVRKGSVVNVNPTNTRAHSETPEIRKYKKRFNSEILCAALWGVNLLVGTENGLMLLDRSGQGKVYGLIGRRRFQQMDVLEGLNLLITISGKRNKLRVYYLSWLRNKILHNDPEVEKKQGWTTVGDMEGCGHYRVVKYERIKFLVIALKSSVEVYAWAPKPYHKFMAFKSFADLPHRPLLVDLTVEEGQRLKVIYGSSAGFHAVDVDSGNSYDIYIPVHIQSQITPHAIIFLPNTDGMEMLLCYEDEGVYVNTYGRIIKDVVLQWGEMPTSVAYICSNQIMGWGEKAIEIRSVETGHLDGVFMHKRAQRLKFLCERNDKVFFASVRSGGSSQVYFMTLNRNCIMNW
Text: as §1, §2, §3, §4, §5

[23] = molecular target: T23, 384 kinases from the human genome (Homo sapiens, UniProt Q96SB4); conditions: kinase SRPK1 (Entrez SRPK1)
T23 construct: purchased Eurofin/DiscoverX
T23 sequence (Q96SB4 whole entry): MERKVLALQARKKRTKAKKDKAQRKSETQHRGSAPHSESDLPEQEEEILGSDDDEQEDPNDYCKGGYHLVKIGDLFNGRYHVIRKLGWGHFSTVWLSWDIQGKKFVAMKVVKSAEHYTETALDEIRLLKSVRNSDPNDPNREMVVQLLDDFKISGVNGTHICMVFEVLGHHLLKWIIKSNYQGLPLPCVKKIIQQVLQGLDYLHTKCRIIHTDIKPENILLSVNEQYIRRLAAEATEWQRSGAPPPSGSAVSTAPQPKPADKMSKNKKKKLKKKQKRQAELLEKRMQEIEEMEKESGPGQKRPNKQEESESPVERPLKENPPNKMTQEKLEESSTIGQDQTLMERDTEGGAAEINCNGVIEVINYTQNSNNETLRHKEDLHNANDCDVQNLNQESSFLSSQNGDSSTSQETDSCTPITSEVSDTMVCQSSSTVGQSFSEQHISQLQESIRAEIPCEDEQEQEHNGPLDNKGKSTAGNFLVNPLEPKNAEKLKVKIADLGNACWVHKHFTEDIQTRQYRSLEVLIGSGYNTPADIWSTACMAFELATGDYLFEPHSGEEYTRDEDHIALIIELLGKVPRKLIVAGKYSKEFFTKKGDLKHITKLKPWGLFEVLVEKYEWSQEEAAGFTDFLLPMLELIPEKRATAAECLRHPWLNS
Text: as §1, §2, §3, §4, §5

[24] = molecular target: T24, 384 kinases from the human genome (Homo sapiens, UniProt Q9C098); conditions: kinase DCAMKL3 (Entrez DCLK3)
T24 construct: purchased Eurofin/DiscoverX
Text: as §1, §2, §3, §4, §5

[25] = molecular target: T25, 384 kinases from the human genome (Homo sapiens, UniProt Q9NSY1); conditions: kinase BIKE (Entrez BMP2K)
T25 construct: purchased Eurofin/DiscoverX
T25 sequence (Q9NSY1 whole entry): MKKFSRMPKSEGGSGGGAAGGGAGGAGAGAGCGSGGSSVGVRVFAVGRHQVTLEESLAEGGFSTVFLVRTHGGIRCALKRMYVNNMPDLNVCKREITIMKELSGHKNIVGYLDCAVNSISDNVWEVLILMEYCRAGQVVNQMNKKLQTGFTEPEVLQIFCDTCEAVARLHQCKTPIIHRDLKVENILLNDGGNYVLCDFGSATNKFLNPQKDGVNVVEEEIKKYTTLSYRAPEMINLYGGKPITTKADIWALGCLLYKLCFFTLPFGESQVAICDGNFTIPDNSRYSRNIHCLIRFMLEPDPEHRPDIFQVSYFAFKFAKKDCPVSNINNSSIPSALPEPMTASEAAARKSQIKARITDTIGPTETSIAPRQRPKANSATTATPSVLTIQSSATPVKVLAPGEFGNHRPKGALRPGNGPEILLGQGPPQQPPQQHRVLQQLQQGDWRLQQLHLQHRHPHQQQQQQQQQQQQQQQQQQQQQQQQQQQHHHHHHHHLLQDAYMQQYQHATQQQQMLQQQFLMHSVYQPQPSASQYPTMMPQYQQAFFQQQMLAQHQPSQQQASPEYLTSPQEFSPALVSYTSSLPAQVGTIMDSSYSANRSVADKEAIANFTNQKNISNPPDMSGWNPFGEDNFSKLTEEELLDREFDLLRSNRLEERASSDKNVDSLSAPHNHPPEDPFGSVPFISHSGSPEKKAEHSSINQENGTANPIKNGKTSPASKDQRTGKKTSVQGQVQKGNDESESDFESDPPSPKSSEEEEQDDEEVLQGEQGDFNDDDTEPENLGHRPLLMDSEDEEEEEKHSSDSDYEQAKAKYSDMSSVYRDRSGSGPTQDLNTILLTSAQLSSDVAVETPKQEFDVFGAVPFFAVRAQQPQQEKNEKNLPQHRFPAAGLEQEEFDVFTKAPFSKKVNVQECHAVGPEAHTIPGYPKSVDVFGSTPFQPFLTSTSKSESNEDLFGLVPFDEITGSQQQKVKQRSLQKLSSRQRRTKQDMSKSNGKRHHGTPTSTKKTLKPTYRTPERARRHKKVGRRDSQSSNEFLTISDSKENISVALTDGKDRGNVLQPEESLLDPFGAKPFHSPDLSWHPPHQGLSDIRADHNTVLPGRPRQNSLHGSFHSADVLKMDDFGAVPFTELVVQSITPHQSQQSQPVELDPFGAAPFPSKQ
Text: as §1, §2, §3, §4, §5

[26] = molecular target: T26, 384 kinases from the human genome (Homo sapiens, UniProt Q9UPE1); conditions: kinase SRPK3 (Entrez SRPK3)
T26 construct: purchased Eurofin/DiscoverX
Text: as §1, §2, §3, §4, §5

SMILES: CC(C)C(=O)N1CCN(c2ccc(NC(=O)c3cc4ccccc4o3)cc2Cl)CC1 [Compound 21]
- Percent Control [1]: 81%
- Percent Control [2]: 100%
- Percent Control [3]: 89%
- Percent Control [4]: 100%
- Percent Control [5]: 100%
- Percent Control [6]: 94%
- Percent Control [7]: 100%
- Percent Control [8]: 100%
- Percent Control [9]: 100%
- Percent Control [10]: 83%
- Percent Control [11]: 85%
- Percent Control [12]: 77%
- Percent Control [13]: 92%
- Percent Control [14]: 96%
- Percent Control [15]: 100%
- Percent Control [16]: 58%
- Percent Control [17]: 100%
- Percent Control [18]: 95%
- Percent Control [19]: 98%
- Percent Control [20]: 88%
- Percent Control [21]: 97%
- Percent Control [22]: 63%
- Percent Control [23]: 96%
- Percent Control [24]: 97%
- Percent Control [25]: 100%
- Percent Control [26]: 100%
